The record followed here is patent US8937065B2, “Compositions and methods for modulating a kinase” (Clevexel Pharma, priority 2011, dated 2015).

Each structure is given as a SMILES string.

Data set [1] relates to IL-2 stimulated PBMCs. Put plainly: IL-2-stimulated proliferation of PBMC (Cell Titer Glo). The conditions noted are these: read-out: IC50 T cells outcome-based: IL-2 stimulated PBMCs Proliferation. The method, then: Fresh blood collection and PBMC separation assay • 1. Three donors were used to collect enough blood samples. The fresh blood was stored in Heparin Sodium tubes. • 2. Transferred blood to 50 ml centrifugal tube. 15 ml of blood was put into a tube. • 3. Added same volume of DPBS into the blood tube and mixed gently. • 4. Slowly underlayed 10 ml Ficoll using pipette (being careful to not disturb the 2 phases). • 5. Centrifuged 30 min at 800 g at RT without break. • 6. Aspirated the buffy coat (containing PBMC) at the interface between serum and ficoll. The PBMC was washed by enough DPBS and centrifuged at 900 g to remove the Ficoll. • 7. Added RPMI-1640 Medium to the collected PBMC and counted the concentration of PBMC. At least 1 million of PBMC were separated from 1 ml of blood.
IL-2-induced proliferation of PBMC by Cell Titer Glow assay • 1. Counted the PBMC numbers and adjusted cell density to 1.0*10^6/ml. • 2. Seeded cells in complete RPMI in the presence of PHA (phytohemagglutinin, 10 ug/ml). • 3. Added 100 μl of cell suspension to the 96-well plate (white) according to the planned plate map. So there were 1.0*10^5 cells in each well. Cultured for 3 days. • 4. Replaced media with complete RPMI plus IL-2, 100 units/ml and compounds, e.g compounds were added only at IL-2 incubation step. Cultured for 2 days. • 5. […] Recorded luminescence with Flexstation 3 and export the data.

Data set [2] relates to RS4; 11 cells. Kind of data set: Proliferation of RS4; 11 cells (Cell Titer-Glo). Particulars: Homo sapiens, B cells, outcome-based, read-out: IC50 Proliferation RS4, 11 cells (ALL). The method, then:
Growth inhibitory activity against the human tumor cell lines, RS4; 11 and Daudi was determined using Promega's Cell Titer-Glo® assay. The human tumor cells were placed in a 96-well microculture plate (Costar white, flat bottom #3917) in a total volume of 90 μL/well. After 24 hours of incubation in a humidified incubator at 37° C. with 5% CO2 and 95% air, […] serially diluted test agents in growth medium were added to each well. After 96 total hours of culture in a CO2 incubator, the plated cells and Cell Titer-Glo® (Promega # G7571) reagents were brought to room temperature to equilibrate for 30 minutes. 100 μL of Cell Titer-Glo® reagent was added to each well. The plate was shaken for 2 minutes and then left to equilibrate for 10 minutes before reading luminescence on the Tecan GENios microplate reader.
Percent inhibition of cell growth was calculated relative to untreated control wells. All tests were performed in duplicate at each concentration level. The IC50 value for the test agents was estimated using Prism 3.03 by curve-fitting the data using the following four parameter-logistic equation: […]

Data set [3] concerns Caco-2. Kind of data set: Caco-2 permeability and efflux. In kind it is in vitro ADME.
The target in data set [4] is T1, JAK3 (Homo sapiens, UniProt P52333).
T1 construct: purchased Invitrogen, Madison, Wis
T1 sequence (P52333 1-1124): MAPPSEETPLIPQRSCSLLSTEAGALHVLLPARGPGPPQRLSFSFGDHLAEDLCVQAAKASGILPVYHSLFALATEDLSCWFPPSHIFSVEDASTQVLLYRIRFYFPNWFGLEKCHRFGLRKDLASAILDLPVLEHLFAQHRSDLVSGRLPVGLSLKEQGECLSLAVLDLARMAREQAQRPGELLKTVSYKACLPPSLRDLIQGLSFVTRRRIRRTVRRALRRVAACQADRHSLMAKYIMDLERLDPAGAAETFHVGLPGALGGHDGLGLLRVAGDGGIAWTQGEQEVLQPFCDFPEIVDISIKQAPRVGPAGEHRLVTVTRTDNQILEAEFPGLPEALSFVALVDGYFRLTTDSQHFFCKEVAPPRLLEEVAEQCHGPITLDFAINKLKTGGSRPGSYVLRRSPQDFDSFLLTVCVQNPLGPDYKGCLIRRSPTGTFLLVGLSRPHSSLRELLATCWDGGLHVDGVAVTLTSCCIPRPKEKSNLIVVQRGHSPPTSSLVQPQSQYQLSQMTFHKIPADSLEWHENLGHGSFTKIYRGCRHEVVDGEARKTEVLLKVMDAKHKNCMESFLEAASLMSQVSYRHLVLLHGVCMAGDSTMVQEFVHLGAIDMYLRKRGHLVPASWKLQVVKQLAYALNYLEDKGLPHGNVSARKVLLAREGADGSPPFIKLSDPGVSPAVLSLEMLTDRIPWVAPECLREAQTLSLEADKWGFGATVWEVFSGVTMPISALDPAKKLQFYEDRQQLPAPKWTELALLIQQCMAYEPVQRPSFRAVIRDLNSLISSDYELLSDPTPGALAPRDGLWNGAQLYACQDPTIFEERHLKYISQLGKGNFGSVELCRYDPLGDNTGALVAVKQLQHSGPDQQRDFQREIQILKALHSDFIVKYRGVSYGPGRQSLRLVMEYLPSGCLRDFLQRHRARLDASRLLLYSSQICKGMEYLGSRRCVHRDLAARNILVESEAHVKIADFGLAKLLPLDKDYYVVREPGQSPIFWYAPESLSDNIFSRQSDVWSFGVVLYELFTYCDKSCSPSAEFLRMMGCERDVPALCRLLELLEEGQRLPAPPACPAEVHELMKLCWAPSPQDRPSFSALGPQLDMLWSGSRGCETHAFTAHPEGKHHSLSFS
Kind of data set: JAK3 enzymatic activity assay (Z'-LYTE Biochemical Kinase Assay, 2 hr preincubation at 4° C.). Particulars: cell-free.

Take `O=C(CN1CCOCC1)Nc1cccc(-c2nc(-c3c[nH]c(C(=O)N4CCCC4)c3)cs2)c1` [7A, 2-morpholino-N-(3-(4-(5-(pyrrolidine-1-carbonyl)-1H-pyrrol-3-yl)thiazol-2-yl)phenyl)acetamide]: the IC50 in data set [1] was 3000 to 6000 nM; in data set [2] it was 500 nM. Also, in data set [3] (Caco-2), the “Caco-2 Eflux” value is on record as “no”. Further, in data set [3] (Caco-2, A-B), the “Caco-2 Papp A-B (×10^6/cm · s^−1)” value is listed as 24 ×10^6/cm · s^−1. In data set [4], this molecule came in with a Ki of 0.795 µM.
